The target of one assay is T1, S. scrofa CI (Sus scrofa, UniProt A0A4X1SZP7).
T1 construct: gene NDUFV1; native purified mitochondrial complex I; with NADH dehydrogenase [ubiquinone] flavoprotein 2, mitochondrial; NADH-ubiquinone oxidoreductase 75 kDa subunit, mitochondrial
The assay can be described thus: NADH oxidation at […] nm. Type of assay: biochemical. The conditions noted are these: 200 μM DQ, 300 μM NADH, pH 7.4; thermal deactivation assay.

Assay [1] deals with T2, Eg-CI (ubiquinone / rotenone site).
T2 construct: gene ND1; native mitochondrial complex I, LMNG-solubilised, 59 subunits (16 core), ion exchange and SEC; cells catalogue GY-D32; with NADH dehydrogenase [ubiquinone] flavoprotein 1, mitochondrial; NADH-ubiquinone oxidoreductase 75 kDa subunit, N-terminal part; NADH-ubiquinone oxidoreductase 75 kDa subunit, C-terminal part
In words: NADH-DQ oxidoreductase, NADH oxidation at […] nm. Type of assay: biochemical, Euglena gracilis. As to conditions: 10 nM Eg-CI, 200 μM decylubiquinone, 250 μM NADH, pH 7.4, 0.1% digitonin, room temperature.

pIC50: −log10 of the molar value.

T1 sequence (A0A4X1SZP7 21-464): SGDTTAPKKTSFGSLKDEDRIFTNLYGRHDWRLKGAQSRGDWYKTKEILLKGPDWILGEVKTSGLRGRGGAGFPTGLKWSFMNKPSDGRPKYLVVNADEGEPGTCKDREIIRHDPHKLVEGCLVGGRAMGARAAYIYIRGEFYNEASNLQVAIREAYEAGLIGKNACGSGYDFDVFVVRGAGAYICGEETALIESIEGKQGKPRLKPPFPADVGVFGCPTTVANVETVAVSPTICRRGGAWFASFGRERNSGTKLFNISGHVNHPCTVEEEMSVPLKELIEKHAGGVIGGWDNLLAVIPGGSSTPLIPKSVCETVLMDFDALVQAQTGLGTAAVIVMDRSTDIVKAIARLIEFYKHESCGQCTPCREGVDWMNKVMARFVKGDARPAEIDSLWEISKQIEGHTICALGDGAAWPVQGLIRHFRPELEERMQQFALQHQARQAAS

For the compound `NC(=O)C1=CN([C@@H]2O[C@H](COP(=O)(O)OP(=O)(O)OC[C@H]3O[C@@H](n4cnc5c(N)ncnc54)[C@H](O)[C@@H]3O)[C@@H](O)[C@H]2O)C=CC1` [NADH], the “NADH oxidation at 340 nm” value at S. scrofa CI is on record as “Thermal deactivation assays of S. scrofa CI (a)”.
As for `C=C(C)[C@H]1Cc2c(ccc3c2O[C@@H]2COc4cc(OC)c(OC)cc4[C@@H]2C3=O)O1` [rotenone], the pIC50 in assay [1] was around 4.96.

Usually pIC50 stands for the negative decadic logarithm of the IC50, by convention in mol/L. A lower pIC50 goes with a large IC50.

(Values after PMC10884005, “Euglena’s atypical respiratory chain adapts to the discoidal cristae and flexible metabolism” (Nature Communications, 2024).)
